Measured values taken from US6830885B1, “Nucleic acid molecule, method and kit for selecting a nucleic acid having a desired feature” (priority 2000, dated 2004).
Like-named read-outs stand apart in the source and are kept apart here.

How the values were obtained:
[1] = test system: Sindbis viral particles; assay: Virus production from BHK-21 cells infected with VB222-derived Sindbis viral particles under drug treatment; format: cell-based; settings: multiplicity of infection 0.05, viral particles collected 6 hours later
Experimental: The viral genome was transcribed from plasmid VB222. The exogenous nucleic acid encodes GFP to facilitate detection of transfected and/or infected cells. BHK-21 cells were transfected with said viral genome and viral particles were collected 34 hours later. These viral particles were tittered by standard plaque assay and used to infect BHK-21 cells at a multiplicity of infection of 0.05. The medium was changed one hour post-infection. Drugs were added one hour post-infection at a concentration of 200 nM (okadaic acid) or 30 μg/ml (cerulenin) and viral particles were collected 6 hours later. […] Treatment with the drug could be maintained while propagating the viral particles, thereby further decreasing the number of viral particles produced from viral genomes expressing an exogenous nucleic acid encoding a peptide or protein that is not involved in drug-resistance.

[2] = test system: Sindbis-infected BHK-21 cells; settings: cited from earlier work

SMILES | decrease in virus production ([1]; cerulenin 30 μg/ml added one hour post-infection) [fold] | production of viral particles ([2]; 30 μg/ml) | decrease in virus production ([1]; okadaic acid 200 nM added one hour post-infection) [fold] | production of viral particles ([2]; 200 nM)
C/C=C/C/C=C/CCC(=O)[C@H]1O[C@H]1C(N)=O [cerulenin] | 39 | impairs production of viral particles |  | 
C=C1[C@@H](O)[C@@H]2O[C@]3(CC[C@H](/C=C/[C@@H](C)[C@@H]4CC(C)=C[C@@]5(O[C@H](C[C@@](C)(O)C(=O)O)CC[C@H]5O)O4)O3)CC[C@H]2O[C@@H]1[C@@H](O)C[C@H](C)[C@H]1O[C@@]2(CCCCO2)CC[C@H]1C [okadaic acid] |  |  | 13 | impairs production of viral particles
